Source: patent US6599924B1, “2-hetaryl-3,4-dihydro-2H-pyrrole derivatives” (Bayer Aktiengesellschaft, priority 1998, dated 2003)

Test: log P determination
Conditions: not given

Row | Molecule | logP
1 | C#CCOc1ccc(C2CCC(c3sccc3Cl)=N2)cc1 (stereo not shown) [Example I-720] | 1.97
2 | C=CCOc1ccc(C2CCC(c3sccc3Cl)=N2)cc1 (stereo not shown) [Example I-707] | 2.29
3 | FC(F)(F)Oc1ccc(Oc2ccc(C3CCC(c4sccc4Cl)=N3)cc2)cc1 (stereo not shown) [Example I-710] | 4.5

Same assay, conditions: pH 2.3

Row | Molecule | logP
4 | FC(F)(F)Oc1ccc(Oc2ccc(C3CCC(c4sccc4Cl)=N3)cc2)cc1 (stereo not shown) [Example I-708, 2-(5-(4-Trifluoromethoxyphenoxy-phenyl)-Δ^2-pyrrolin-2-yl)-3-chlorothiophene] | 4.5
5 | Fc1ccsc1C1=NC(c2ccc(-c3ccc(OC(F)(F)F)cc3)cc2)CC1 (stereo not shown) [Example I-868, 5-(3-fluorothien-2-yl)-3,4-dihydro-2-[4′-trifluoromethoxy]-[1,1′-biphenyl]-4-yl-2H-pyrrole] | 3.18
6 | CC(C)(C)OC(=O)NC(CCC(=O)c1sccc1F)c1ccc(-c2ccc(OC(F)(F)F)cc2)cc1 (stereo not shown) [II-868] | 5.05
7 | FC(F)(F)Oc1ccc(-c2ccc(C3CCC(c4ccc(Br)s4)=N3)cc2)cc1 (stereo not shown) [Example I-618] | 4.73
8 | FC(F)(F)Oc1ccc(-c2ccc(C3CCC(c4ccsc4)=N3)cc2)cc1 (stereo not shown) [Example I-430] | 2.44
9 | FC(F)(F)Oc1ccc(-c2ccc(C3CCC(c4ncccc4C(F)(F)F)=N3)cc2)cc1 (stereo not shown) [Example I-336] | 5.06
10 | FC(F)(F)Oc1ccc(-c2ccc(C3CCC(c4cccs4)=N3)cc2)cc1 (stereo not shown) [Example I-7] | 2.45
11 | FC(F)(F)Oc1ccc(-c2ccc(C3CCC(c4ccc(Cl)s4)=N3)cc2)cc1 (stereo not shown) [Example I-148] | 4.21
12 | FC(F)(F)Oc1ccc(-c2ccc(C3CCC(c4sccc4Cl)=N3)cc2)cc1 (stereo not shown) [Example I-195] | 4.67

Test: not given
Conditions: not given

Row | Molecule | logp (pH=7.5)
13 | 1-dimethylamino-5-phenylpyrrolidone-2 [G (I′-678)] | 1.52

Test: not given
Conditions: not given
Remark: another data set of the same source

Row | Molecule | melting point
14 | Oc1ccc(C2CCC(c3sccc3Cl)=N2)cc1 (stereo not shown) [Example I-706, 2-(5-(4-Hydroxyphenyl)-Δ^2-pyrrolin-2-yl)-3-chlorothiophene] | 146 °C
15 | CC(C)(C)c1ccc(COc2ccc(C3CCC(c4sccc4Cl)=N3)cc2)cc1 (stereo not shown) [Example I-718, 3-Chloro-2-[5-(4-(4-tert-butylbenzyloxy)-phenyl)-Δ^2-pyrrolin-2-yl]-thiophene] | 102 °C

Test: physchem
Conditions: pH 7.5

Row | Molecule | logP
16 | c1ccc(C2CCC(c3cccnc3)=N2)cc1 (stereo not shown) [Example I-678] | 2.01
